Laboratory results taken from US20250170248A1, “SMARCA DEGRADERS AND USES THEREOF” (Kymera Therapeutics, Inc., priority 2021, published 2025).

Tests used:
Format in all cases: cell-based
SMARCA2 [1] = molecular target: T1, SMARCA2 (Homo sapiens, UniProt P51531); test: MSD SMARCA2 degradation in A549 cell line; conditions: for Dmax: A549, A549 cells; for Dmax / DC50: 24 h; for DC50 / SMARCA2 MSD A549 degradation 24 h: Average Dmax %: A549 cells; for DC50: read-out: SMARCA2 MSD A549 degradation 24 h: Average external-Abs DC50
Outline: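 A549 cells treated 24 h with compound, 3-fold series from 1000 nM. Lysates captured on MSD plates and SMARCA2 quantified with anti-SMARCA2 and SULFO-TAG secondary antibodies (electrochemiluminescence). DC50 and Dmax (% degradation at 24 h) reported as letter bins.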

SMARCA4 = molecular target: T2, SMARCA4 (Homo sapiens, UniProt P51532); test: SMARCA4 Western blot degradation in MV4-11 cells; conditions: for Dmax: MV4-11, MV4-11 cells, read-out: SMARCA4 MSD MV411 degradation 24 h: average Dmax %; for Dmax / DC50: 24 h; for DC50 / SMARCA4 MSD MV411 degradation 24 h: average Dmax %: MV4-11 cells; for DC50: read-out: SMARCA4 MSD MV411 degradation 24 h: Mean external-Abs DC50
T2 construct: SMARCA2/SMARCA4 protein degradation selectivity in MV4-11 cells; endogenous in cells; host or cells: MV4-11
Outline: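 24 h compound exposure, MV4-11; RIPA lysates → SDS-PAGE → NC membrane; anti-SMARCA2/BRM, anti-BRG1, β-actin loading control; LI-COR fluorescence read. DC50 and Dmax at 24 h reported as letter bins.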

SMARCA2 [2] = molecular target: T1, SMARCA2; test: SMARCA2 Western blot degradation in MV4-11 cells; design: SMARCA2/SMARCA4 protein degradation selectivity in MV4-11 cells; endogenous in cells; host or cells: MV4-11; conditions: for Dmax: MV4-11, MV4-11 cells, read-out: SMARCA2 MSD MV411 degradation 24 h: average Dmax %; for Dmax / DC50 / SMARCA2 MSD MV411 degradation 24 h: average Dmax %: 24 h; for DC50 / Selectivity in MV411 / SMARCA2 MSD MV411 degradation 24 h: average Dmax %: MV4-11 cells; for DC50: read-out: SMARCA2 MSD MV411 degradation 24 h: Mean external-Abs DC50; for Selectivity in MV411: SMARCA2/4 selectivity

T2 sequence (P51532 whole entry): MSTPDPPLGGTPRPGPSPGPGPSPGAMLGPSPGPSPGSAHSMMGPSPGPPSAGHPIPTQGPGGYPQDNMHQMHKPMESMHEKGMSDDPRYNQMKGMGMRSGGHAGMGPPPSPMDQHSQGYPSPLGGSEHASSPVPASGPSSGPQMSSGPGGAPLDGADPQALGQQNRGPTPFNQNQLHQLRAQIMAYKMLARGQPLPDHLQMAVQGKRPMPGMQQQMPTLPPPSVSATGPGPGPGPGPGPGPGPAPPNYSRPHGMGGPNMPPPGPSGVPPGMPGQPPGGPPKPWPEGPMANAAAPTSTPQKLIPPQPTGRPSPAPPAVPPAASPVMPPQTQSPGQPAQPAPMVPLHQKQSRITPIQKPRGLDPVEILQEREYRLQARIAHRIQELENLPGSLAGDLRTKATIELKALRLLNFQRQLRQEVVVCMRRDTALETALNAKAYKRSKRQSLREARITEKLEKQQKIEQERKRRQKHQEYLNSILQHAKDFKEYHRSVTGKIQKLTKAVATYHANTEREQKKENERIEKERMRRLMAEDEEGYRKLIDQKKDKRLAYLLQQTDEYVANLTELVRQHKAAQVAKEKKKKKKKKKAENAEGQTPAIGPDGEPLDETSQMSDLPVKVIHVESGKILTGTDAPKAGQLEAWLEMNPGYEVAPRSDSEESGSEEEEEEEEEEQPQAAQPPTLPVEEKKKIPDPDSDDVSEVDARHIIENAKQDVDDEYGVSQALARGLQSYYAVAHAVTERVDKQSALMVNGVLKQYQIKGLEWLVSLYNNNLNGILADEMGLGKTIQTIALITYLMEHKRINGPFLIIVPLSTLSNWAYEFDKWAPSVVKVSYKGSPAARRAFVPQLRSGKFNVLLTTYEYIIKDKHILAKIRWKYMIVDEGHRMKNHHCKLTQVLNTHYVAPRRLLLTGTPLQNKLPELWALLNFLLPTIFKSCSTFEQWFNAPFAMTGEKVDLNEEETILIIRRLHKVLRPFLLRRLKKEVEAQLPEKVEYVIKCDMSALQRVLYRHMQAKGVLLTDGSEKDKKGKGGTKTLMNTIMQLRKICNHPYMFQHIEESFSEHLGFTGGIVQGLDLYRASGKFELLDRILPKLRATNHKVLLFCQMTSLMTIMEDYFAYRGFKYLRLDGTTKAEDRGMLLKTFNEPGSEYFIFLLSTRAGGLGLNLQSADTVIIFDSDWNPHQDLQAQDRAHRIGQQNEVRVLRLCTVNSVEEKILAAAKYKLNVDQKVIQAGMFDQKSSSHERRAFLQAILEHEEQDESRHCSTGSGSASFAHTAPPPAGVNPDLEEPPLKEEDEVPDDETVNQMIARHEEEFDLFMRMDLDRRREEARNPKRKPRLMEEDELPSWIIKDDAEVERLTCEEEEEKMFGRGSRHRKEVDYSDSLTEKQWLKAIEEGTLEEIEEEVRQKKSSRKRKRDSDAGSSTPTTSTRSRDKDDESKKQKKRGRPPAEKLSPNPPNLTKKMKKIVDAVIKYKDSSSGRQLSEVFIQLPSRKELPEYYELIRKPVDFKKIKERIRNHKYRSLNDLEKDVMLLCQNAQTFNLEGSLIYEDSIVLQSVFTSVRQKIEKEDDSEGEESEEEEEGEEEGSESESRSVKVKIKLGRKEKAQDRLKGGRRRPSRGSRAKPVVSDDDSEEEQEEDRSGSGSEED
T1 sequence (P51531 whole entry): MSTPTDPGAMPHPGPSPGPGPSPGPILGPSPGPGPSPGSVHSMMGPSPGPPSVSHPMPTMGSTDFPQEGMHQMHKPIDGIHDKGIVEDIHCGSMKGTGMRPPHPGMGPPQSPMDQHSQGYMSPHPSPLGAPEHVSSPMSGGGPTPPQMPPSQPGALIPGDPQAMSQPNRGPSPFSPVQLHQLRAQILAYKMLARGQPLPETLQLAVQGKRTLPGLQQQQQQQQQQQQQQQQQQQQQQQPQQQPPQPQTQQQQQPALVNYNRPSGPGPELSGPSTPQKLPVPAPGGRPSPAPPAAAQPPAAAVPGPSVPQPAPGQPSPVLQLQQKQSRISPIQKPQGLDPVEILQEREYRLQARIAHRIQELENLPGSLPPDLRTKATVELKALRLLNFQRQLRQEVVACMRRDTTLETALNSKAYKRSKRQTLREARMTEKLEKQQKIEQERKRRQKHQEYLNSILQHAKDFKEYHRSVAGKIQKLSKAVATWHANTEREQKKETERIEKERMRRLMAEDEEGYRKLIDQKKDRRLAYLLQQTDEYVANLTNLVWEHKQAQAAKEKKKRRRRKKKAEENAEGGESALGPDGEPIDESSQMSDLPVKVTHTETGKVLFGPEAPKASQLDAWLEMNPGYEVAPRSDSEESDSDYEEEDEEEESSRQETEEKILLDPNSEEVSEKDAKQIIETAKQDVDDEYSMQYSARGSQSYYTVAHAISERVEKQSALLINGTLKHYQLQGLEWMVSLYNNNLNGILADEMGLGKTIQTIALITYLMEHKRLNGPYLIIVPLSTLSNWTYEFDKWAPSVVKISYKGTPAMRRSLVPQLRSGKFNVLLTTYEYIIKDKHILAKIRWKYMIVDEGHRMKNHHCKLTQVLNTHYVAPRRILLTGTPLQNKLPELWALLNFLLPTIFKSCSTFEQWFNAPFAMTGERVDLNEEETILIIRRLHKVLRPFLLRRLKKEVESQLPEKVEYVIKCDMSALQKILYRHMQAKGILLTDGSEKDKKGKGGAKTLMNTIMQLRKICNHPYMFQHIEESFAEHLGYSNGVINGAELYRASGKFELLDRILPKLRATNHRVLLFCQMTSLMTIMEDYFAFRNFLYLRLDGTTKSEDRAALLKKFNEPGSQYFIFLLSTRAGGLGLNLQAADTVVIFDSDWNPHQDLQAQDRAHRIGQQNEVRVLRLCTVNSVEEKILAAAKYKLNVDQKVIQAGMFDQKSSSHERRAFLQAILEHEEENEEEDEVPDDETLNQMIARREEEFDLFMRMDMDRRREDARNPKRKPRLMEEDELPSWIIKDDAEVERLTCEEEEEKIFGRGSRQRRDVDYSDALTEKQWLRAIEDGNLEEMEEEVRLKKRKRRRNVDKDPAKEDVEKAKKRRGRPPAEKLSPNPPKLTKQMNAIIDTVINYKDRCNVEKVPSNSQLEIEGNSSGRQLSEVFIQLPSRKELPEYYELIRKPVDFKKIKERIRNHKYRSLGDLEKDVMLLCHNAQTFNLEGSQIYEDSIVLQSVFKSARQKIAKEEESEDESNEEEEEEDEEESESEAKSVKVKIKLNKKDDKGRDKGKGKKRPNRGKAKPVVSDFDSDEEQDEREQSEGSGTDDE

| SMILES | Dmax (SMARCA2 [1]) [%] | DC50 (SMARCA2 [1]) [µM] | Dmax (SMARCA4) [%] | DC50 (SMARCA4) [µM] | Dmax (SMARCA2 [2]) [%] | DC50 (SMARCA2 [2]) [µM] | Selectivity in MV411 (SMARCA2 [2]) | SMARCA2 MSD A549 degradation 24 h: Average Dmax % (SMARCA2 [1]) | SMARCA4 MSD MV411 degradation 24 h: average Dmax % (SMARCA4) | SMARCA2 MSD MV411 degradation 24 h: average Dmax % (SMARCA2 [2]) |
| --- | --- | --- | --- | --- | --- | --- | --- | --- | --- | --- |
| C#Cc1ccc(CNC(=O)[C@@H]2C[C@@H](O)CN2C(=O)[C@@H](NC(=O)N2CCN(C[C@H]3CC[C@@H](N4CCC(N5CCc6[nH]c7nnc(-c8ccccc8O)cc7c6[C@H]5C)CC4)CC3)CC2)C(C)(C)C)cc1 [I-193] | 70 to 90 | > 0.1 | < 50 | > 0.1 | < 50 | > 0.1 | C (C (10-100 fold)) |  |  |  |
| C#Cc1ccc([C@H](C)NC(=O)[C@@H]2C[C@@H](O)CN2C(=O)[C@H](c2cc(OCCN3CCC(N4CCC(N5CCC(CN6CCN7c8cc(-c9ccccc9O)nnc8NC[C@H]7C6)CC5)CC4)CC3)no2)C(C)C)cc1 (single isomer, unassigned) [I-333] | > 90 | 0.01 to 0.05 | 70 to 90 | 0.01 to 0.1 | > 90 | < 0.001 | C (C (10-100 fold)) |  |  |  |
| C#Cc1ccc(CNC(=O)[C@@H]2C[C@@H](O)CN2C(=O)[C@@H](NC(=O)[C@H]2CCC3(CC2)C[C@H](N2CCN(c4cnc(N5CCN6c7cc(-c8ccccc8O)nnc7NC[C@H]6C5)nc4)CC2)C3)C(C)(C)CCO)c(Cl)c1 (single isomer, unassigned) [I-312] |  | 0.01 to 0.05 |  | > 0.1 |  | 0.01 to 0.1 | B (B (>100-500 fold)) | A (A (>90% degradation)) | D (D (<50% degradation)) | B (B (>70-90% degradation)) |
| C#Cc1ccc([C@H](C)NC(=O)[C@@H]2C[C@@H](O)CN2C(=O)[C@@H](NC(=O)N2CC3(CC(N4CCC(c5cnc(N6CCc7[nH]c8nnc(-c9ccccc9O)cc8c7[C@H]6C)nc5)CC4)C3)C2)C(C)(C)C)c(O)c1 [I-282] | > 90 | < 0.01 | 70 to 90 | > 0.1 | 70 to 90 | 0.001 to 0.01 | C (C (10-100 fold)) |  |  |  |
| C#Cc1ccc(CNC(=O)[C@@H]2C[C@@H](O)CN2C(=O)[C@@H](NC(=O)[C@H]2CCC3(CC2)C[C@H](N2CCC(c4cnc(N5CCN6c7cc(-c8cccc(F)c8O)nnc7NC[C@H]6C5)nc4)CC2)C3)C(C)(C)C)cc1 (single isomer, unassigned) [I-102] |  | 0.01 to 0.05 | 50 to 70 | > 0.1 | 70 to 90 | 0.001 to 0.01 | C (C (10-100 fold)) | A (A (>90% degradation)) |  |  |
| C#Cc1ccc(CNC(=O)[C@@H]2C[C@@H](O)CN2C(=O)[C@@H](NC(=O)[C@H]2CCC3(CC2)C[C@H](N2CCN(c4cnc(N5CCN6c7cc(-c8ccccc8O)nnc7NC[C@H]6C5)nc4)CC2)C3)C(C)(C)CCO)cc1 (single isomer, unassigned) [I-287] | > 90 | < 0.01 | 50 to 70 | > 0.1 | 70 to 90 | 0.001 to 0.01 | A (A (>500 fold)) |  |  |  |
| C#Cc1ccc(CNC(=O)[C@@H]2C[C@@H](O)CN2C(=O)[C@@H](NC(=O)N2CC3(CN(CC4CCN(c5cnc(N6CCc7[nH]c8nnc(-c9ccccc9O)cc8c7[C@H]6C)nc5)CC4)C3)C2)C(C)(C)C)cc1 [I-164] | > 90 | > 0.1 | < 50 | > 0.1 | 70 to 90 | 0.01 to 0.1 | B (B (>100-500 fold)) |  |  |  |
| C#Cc1ccc(CNC(=O)[C@@H]2C[C@@H](O)CN2C(=O)[C@@H](NC(=O)[C@H]2CCC3(CC2)C[C@H](N2CCC(N4CCC(N5CCN6c7cc(-c8ccccc8O)nnc7NC[C@H]6C5)CC4)CC2)C3)C(C)(C)C)c(Cl)c1 (stereo partly drawn) [I-222] |  | > 0.1 |  | > 0.1 |  | 0.01 to 0.1 | B (B (>100-500 fold)) | A (A (>90% degradation)) | D (D (<50% degradation)) | B (B (>70-90% degradation)) |
| C#Cc1ccc(CNC(=O)[C@@H]2C[C@@H](O)CN2C(=O)[C@@H](NC(=O)[C@H]2CC3(C2)C[C@H](N2CCC(N4CCC(N5CCN6c7cc(-c8ccccc8O)nnc7NC[C@H]6C5)CC4)CC2)C3)C(C)(C)C)c(Cl)c1 (single isomer, unassigned) [I-229] | > 90 | > 0.1 | 50 to 70 | > 0.1 | 70 to 90 | 0.01 to 0.1 | B (B (>100-500 fold)) |  |  |  |
| Cc1cc(Cl)ccc1C#CCNC(=O)[C@@H]1C[C@@H](O)CN1C(=O)[C@@H](NC(=O)[C@H]1CCC2(CC1)C[C@H](N1CCC(c3cnc(N4CCN5c6cc(-c7ccccc7O)nnc6NC[C@H]5C4)nc3)CC1)C2)C(C)(C)C (single isomer, unassigned) [I-126] |  | > 0.1 |  | > 0.1 |  | > 0.1 | C (C (10-100 fold)) | D (D (<50% degradation)) | D (D (<50% degradation)) | D (D (<50% degradation)) |
| C#Cc1ccc(CNC(=O)[C@@H]2C[C@@H](O)CN2C(=O)[C@@H](NC(=O)[C@H]2CCC3(CC2)C[C@H](N2CCC(c4cnc(N5CCN6c7cc(-c8ccccc8O)nnc7NC[C@H]6C5)nc4)CC2)C3)C(C)(C)C)c(OCCCN(C)C)c1 (single isomer, unassigned) [I-158] |  | 0.05 to 0.1 |  | 0.01 to 0.1 |  | 0.001 to 0.01 | C (C (10-100 fold)) | A (A (>90% degradation)) | B (B (>70-90% degradation)) | B (B (>70-90% degradation)) |
| C#Cc1ccc(CNC(=O)[C@@H]2C[C@@H](O)CN2C(=O)[C@@H](NC(=O)N2CC3(CC(N4CCC(c5cnc(N6CCc7[nH]c8nnc(-c9ccccc9O)cc8c7[C@H]6C)nc5)CC4)C3)C2)C(C)(C)C)c(OCCCOC)c1 [I-128] | > 90 | < 0.01 | > 90 | 0.01 to 0.1 | > 90 | 0.001 to 0.01 | D (D (<10 fold)) |  |  |  |
| Cc1ncsc1-c1ccc(CNC(=O)[C@@H]2C[C@@H](O)CN2C(=O)C(c2cc(N3CCC(CCN4CCC(c5cnc(N6CCc7[nH]c8nnc(-c9ccccc9O)cc8c7[C@@H]6C)nc5)CC4)CC3)no2)C(C)C)cc1 (single isomer, unassigned) [I-8] | > 90 | 0.01 to 0.05 | 70 to 90 | 0.01 to 0.1 | 70 to 90 | 0.001 to 0.01 | D (D (<10 fold)) |  |  |  |
| C#Cc1ccc(CNC(=O)[C@@H]2C[C@@H](O)CN2C(=O)[C@@H](NC(=O)N2CCN(C[C@H]3CC[C@H](N4CCC(N5CCc6[nH]c7nnc(-c8ccccc8O)cc7c6[C@H]5C)CC4)CC3)CC2)C(C)(C)C)cc1 [I-194] | 70 to 90 | > 0.1 | < 50 | > 0.1 | < 50 | > 0.1 | C (C (10-100 fold)) |  |  |  |
| C#Cc1ccc(CNC(=O)[C@@H]2C[C@@H](O)CN2C(=O)[C@@H](NC(=O)[C@H]2CCC3(CC2)C[C@H](N2CCC(c4cnc(N5CCN6c7cc(-c8ccccc8O)nnc7NC[C@H]6C5)nc4)CC2)C3)C(C)(C)C)c(OCCCOC)c1 (single isomer, unassigned) [I-149] |  | 0.01 to 0.05 |  | 0.01 to 0.1 |  | 0.001 to 0.01 | D (D (<10 fold)) | A (A (>90% degradation)) | A (A (>90% degradation)) | A (A (>90% degradation)) |
